Data published in ChEMBL document CHEMBL3397011, “A novel molecule with notable activity against multi-drug resistant tuberculosis” (Bioorg Med Chem Lett, 2015).
≈ marks a conversion by molar mass, not a printed value. Calls of active or inactive are those of the source. No cut-off for these calls is given here.

Key:
Format in all cases: functional
[1] = test system: Mycobacterium tuberculosis; test: Antimicrobial activity against isoniazid and rifampin resistant Mycobacterium tuberculosis after 21 days at 37 degC by agar dilution drug susceptibility assay
[2] = test system: Mycobacterium tuberculosis; test: (§1) Antimicrobial activity against isoniazid and rifampin resistant Mycobacterium tuberculosis assessed as ratio of MIC combination/MIC compound alone after 21 days at 37 degC in presence of 1-(4-(4-(1H-pyrrol-1-yl)phenyl)piperazin-1-yl)-4-(5-(3,5-difluorobenzyl)-1-(2-fluorobenzyl)-2-oxo-1,2-dihydropyridin-3-yl)-2-hydroxybut-2-ene-1,4-dione by agar dilution drug susceptibility assay
[3] = test system: Mycobacterium tuberculosis; test: as §1, with “reduction in colony forming unit” for “ratio of MIC combination/MIC compound alone”; design: scale not given: the % may be the effect or the level left
[4] = test system: Mycobacterium tuberculosis; test: Antimicrobial activity against isoniazid and rifampin resistant Mycobacterium tuberculosis after 21 days at 37 degC in presence of 1-(4-(4-(1H-pyrrol-1-yl)phenyl)piperazin-1-yl)-4-(5-(3,5-difluorobenzyl)-1-(2-fluorobenzyl)-2-oxo-1,2-dihydropyridin-3-yl)-2-hydroxybut-2-ene-1,4-dione by agar dilution drug susceptibility assay
[5] = test system: Mycobacterium tuberculosis; test: Antimicrobial activity against isoniazid and rifampin resistant Mycobacterium tuberculosis assessed as ratio of MIC combination/MIC compound alone after 21 days at 37 degC in presence of PA-824 by agar dilution drug susceptibility assay
[6] = test system: Mycobacterium tuberculosis; test: Antimicrobial activity against isoniazid and rifampin resistant Mycobacterium tuberculosis assessed as reduction in colony forming unit after 21 days at 37 degC in presence of PA-824 by agar dilution drug susceptibility assay; design: scale not given: the % may be the effect or the level left
[7] = test system: Mycobacterium tuberculosis; test: Antimicrobial activity against isoniazid and rifampin resistant Mycobacterium tuberculosis after 21 days at 37 degC in presence of PA-824 by agar dilution drug susceptibility assay; conditions: 504 h

## O=C(/C=C(\O)C(=O)N1CCN(c2ccc(-n3cccc3)cc2)CC1)c1cc(Cc2ccccc2)cn(Cc2ccccc2)c1=O
[1]; 504 h
  MIC: 3.12 µg/mL (≈ 5.22 µM)

## O=[N+]([O-])c1cn2c(n1)OC[C@@H](OCc1ccc(OC(F)(F)F)cc1)C2 [PRETOMANID]
[2]
  fractional inhibitory concentration index (FICI): 0.246
[3]
  Activity: >99%
[4]
  MIC: 0.031 µg/mL
[1]; 504 h
  MIC: 0.126 µg/mL (≈ 0.351 µM)

## O=C(/C=C(\O)C(=O)N1CCN(c2ccc(-n3cccn3)cc2)CC1)c1cc(Cc2cc(F)cc(F)c2)cn(Cc2ccccc2F)c1=O
[1]; 504 h
  MIC: 3.12 µg/mL (≈ 4.78 µM)

## CN[C@@H]1[C@H](O[C@H]2[C@H](O[C@H]3[C@H](O)[C@@H](O)[C@H](N=C(N)N)[C@@H](O)[C@@H]3N=C(N)N)O[C@@H](C)[C@]2(O)C=O)O[C@@H](CO)[C@H](O)[C@H]1O
[1]
  MIC: Active

## O=C(/C=C(\O)C(=O)N1CCN(c2ccc(-n3cccc3)cc2)CC1)c1cc(Cc2cc(F)cc(F)c2)cn(Cc2ccccc2F)c1=O
[5]
  fractional inhibitory concentration index (FICI): 0.125
[6]
  Activity: >99%
[1]; 504 h
  MIC: 1.56 µg/mL (≈ 2.39 µM)
[7]
  MIC: 0.195 µg/mL

## O=C(/C=C(\O)C(=O)N1CCN(c2ccc(-n3ccnc3)cc2)CC1)c1cc(Cc2cc(F)cc(F)c2)cn(Cc2ccccc2F)c1=O
[1]; 504 h
  MIC: 6.25 µg/mL (≈ 9.56 µM)
